# Where “and” joins values, the source holds several entries; their conditions need not be identical. Equal values may be shown once.
# Tests used:
# [1] = test system: H22 murine hepatic cancer xenograft; experiment: In vivo tumor growth, H22 murine hepatic cancer xenograft model, compared with anti-PD-1 mAb (Example 5); design: species or system Mouse (Mus Musculus); settings: p.o.; for Tumor Volume (mm^3): QD x 20 days; for T/C (%) / TGI (%) tumor growth inhibition: QD
# Procedure: (§1) Experiments using the murine H22, CT-26 and EMT-6 xenograft models were performed as described below.
# (§2) Cells were cultured in RPMI-1640 medium supplemented with 10% FBS at 37° C. in an atmosphere of 5% CO2 in air. The tumor cells were routinely subcultured three times weekly. The cells that grew in an exponential growth phase were harvested and counted for tumor inoculation.
# (§3) Mice (female, 6-8 weeks old) were inoculated subcutaneously at the right flank with the tumor cells (H22, EMT-6, or CT-26) in 0.1 mL PBS for tumor development. When the tumor volume reached approximately 60-80 mm^3, the mice were grouped randomly according to the animal body weight and tumor volume. Each group had 5-8 tumor-bearing mice.
# (§4) The major endpoint was to determine if tumor growth could be delayed or mice could be cured. Tumor volume was measured three times weekly in two dimensions using a caliper, and the volume was expressed in mm^3 using the formula: V=0.5 a×b^2, where a and b are the long and short diameters of the tumor, respectively. The T/C value (in percent) was an indication of antitumor effectiveness, where T and C were the mean volume of the treated and control groups, respectively, on a given day. The T-C value was calculated according to TV. T-C was calculated with T as the median time (in days) required for the treatment group tumors to reach a predetermined size (e.g., TV as 1000 mm^3), and C as the median time (in days) for the control group tumors to reach the same size. The body weights were measured and recorded at the same time to observe the toxicity of the compounds. The animals were sacrificed at the termination of the study.
# (§5) Summary statistics, including mean and the standard error of the mean (SEM), are provided for the tumor volume of each group at each time point. A two-way analysis of variance (ANOVA) was performed to compare body weight, tumor volume and tumor volume change. A one-way ANOVA was performed to compare tumor weight. All data were analyzed using GraphPad Prism 5. p<0.05 was considered to be statistically significant.
# The anti-cancer activity of nepicastat, etamicastat and anti-PD-1 monoclonal antibody (mAb) was evaluated in a H22 murine hepatic cancer xenograft model according to the experimental procedure described in Example 2.
# [2] = test system: EMT-6 murine breast cancer xenograft; experiment: In vivo tumor growth, EMT-6 murine breast cancer xenograft model (Example 6); design: species or system Mouse (Mus Musculus); settings: Nepicastat 50 mg/kg, QD, oral
# Procedure: as §1, §2, §3, §4, §5
# (§6) Nepicastat was also tested for in vivo tumor growth inhibition in CT-26 murine colon cancer and EMT-6 murine breast cancer xenograft models. Nepicastat was administered orally.
# [3] = test system: CT-26 murine colon cancer xenograft; experiment: In vivo tumor growth, CT-26 murine colon cancer xenograft model (Example 6); design: species or system Mouse (Mus Musculus); settings: Nepicastat 50 mg/kg, QD, oral
# Procedure: as §1, §2, §3, §4, §5, §6
# [4] = test system: H22 murine hepatic cancer xenograft; experiment: In vivo tumor growth, H22 murine hepatic cancer xenograft model (Example 4); design: species or system Mouse (Mus Musculus)
# Procedure: as §1, §2, §3, §4, §5
# The anti-cancer activity of amperozide and nepicastat was evaluated in a H22 murine hepatic cancer xenograft model according to the experimental procedure described in Example 2. Anti-cancer activity was evaluated by measuring changes in tumor volume.
# [5] = test system: H22 murine hepatocarcinoma cell line; experiment: In vitro cell proliferation assay (CellTiter-Glo) in H22 murine hepatocarcinoma cell line; assay type: cell-based
# Procedure: Methods: • (1) Cells were cultured in RPMI-1640 medium supplemented with 10% FBS, 100 U/ml penicillin, and […] streptomycin at 37° C. and 5% CO2 atmosphere. […] The anti-proliferative activity of amperozide, nepicastat, and paclitaxel was tested in the H22 murine hepatocarcinoma cell line according to the experimental procedure described in Example 1.
# [6] = clinical dosage of nepicastat 160 mg/day; read-out: plasma maximal concentration (Cmax); cited from earlier work
# [7] = Nepicastat 48 mg/kg, day 19, listed as nepicastat
structure (smiles),measurement,setting,value
"NCc1c[nH]c(=S)n1[C@H]1CCc2c(F)cc(F)cc2C1 [Nepicastat, nepicastat]",Tumor Volume (mm^3),"[1]; Nepicastat 50 mg/kg, day 3",56.45 ± 4.42 mm^3
same,Tumor Volume (mm^3),"[1]; Nepicastat 50 mg/kg, day 6",107.64 ± 2.13 mm^3
same,Tumor Volume (mm^3),"[1]; Nepicastat 50 mg/kg, day 9",212.98 ± 15.54 mm^3
same,Tumor Volume (mm^3),"[1]; Nepicastat 50 mg/kg, day 13",369.64 ± 18.63 mm^3
same,Tumor Volume (mm^3),"[1]; Nepicastat 50 mg/kg, day 16",552.37 ± 34.69 mm^3
same,Tumor Volume (mm^3),"[1]; Nepicastat 50 mg/kg, day 19",677.68 ± 29.38 mm^3
same,Tumor Volume (mm^3),"[1]; Nepicastat 50 mg/kg, day 22",880.28 ± 33.41 mm^3
same,Tumor Volume (mm^3),"[1]; Nepicastat 50 mg/kg, day 22, listed as nepicastat",880.28 mm^3
same,T/C (%),"[1]; Nepicastat 50 mg/kg, day 22",51.21%
same,TGI (%) tumor growth inhibition,"[1]; Nepicastat 50 mg/kg, day 22",48.79%
same,Tumor Volume (mm^3),"[1]; Nepicastat 100 mg/kg, day 3",56.41 ± 3.96 mm^3
same,Tumor Volume (mm^3),"[1]; Nepicastat 100 mg/kg, day 6",120.60 ± 12.92 mm^3
same,Tumor Volume (mm^3),"[1]; Nepicastat 100 mg/kg, day 9",238.00 ± 22.62 mm^3
same,Tumor Volume (mm^3),"[1]; Nepicastat 100 mg/kg, day 13",384.72 ± 54.05 mm^3
same,Tumor Volume (mm^3),"[1]; Nepicastat 100 mg/kg, day 16",658.54 ± 71.96 mm^3
same,Tumor Volume (mm^3),"[1]; Nepicastat 100 mg/kg, day 19",1049.88 ± 145.91 mm^3
same,Tumor Volume (mm^3),"[1]; Nepicastat 100 mg/kg, day 22",1275.47 ± 154.93 mm^3
same,Tumor Volume (mm^3),"[1]; Nepicastat 100 mg/kg, day 22, listed as nepicastat",1275.47 mm^3
same,T/C (%),"[1]; Nepicastat 100 mg/kg, day 22",74.20%
same,TGI (%) tumor growth inhibition,"[1]; Nepicastat 100 mg/kg, day 22",25.80%
same,T/C (%),"[2]; EMT-6 model, End",76.91%
same,TGI (%) tumor growth inhibition,"[2]; EMT-6 model, End",23.09%
same,Tumor Volume (mm^3) in EMT-6 Model,[2]; day 5 (Initiation),61.55 ± 1.37 mm^3 and 61.55 ± 3.06 mm^3
same,Tumor Volume (mm^3) in EMT-6 Model,[2]; day 8,110.11 ± 2.13 mm^3
same,Tumor Volume (mm^3) in EMT-6 Model,[2]; day 12,229.32 ± 21.67 mm^3
same,Tumor Volume (mm^3) in EMT-6 Model,[2]; day 15,385.24 ± 66.33 mm^3
same,Tumor Volume (mm^3) in EMT-6 Model,[2]; day 19 (End),697.23 ± 35.90 mm^3
same,T/C (%),"[3]; CT-26 model, End",65.70%
same,TGI (%) tumor growth inhibition,"[3]; CT-26 model, End",34.30%
same,Tumor Volume (mm^3) in CT-26 Model,[3]; day 7 (Initiation),59.35 ± 1.65 mm^3 and 59.35 ± 3.69 mm^3
same,Tumor Volume (mm^3) in CT-26 Model,[3]; day 10,86.00 ± 11.91 mm^3
same,Tumor Volume (mm^3) in CT-26 Model,[3]; day 14,314.14 ± 33.19 mm^3
same,Tumor Volume (mm^3) in CT-26 Model,[3]; day 17,501.46 ± 50.04 mm^3
same,Tumor Volume (mm^3) in CT-26 Model,[3]; day 21 (End),1087.75 ± 163.63 mm^3
same,T-C (days) (Reach 1000 mm^3),[4]; Nepicastat 16 mg/kg,1 days
same,Tumor Volume,"[4]; Nepicastat 16 mg/kg, day 5",80 ± 6 mm^3
same,Tumor Volume,"[4]; Nepicastat 16 mg/kg, day 7",140 ± 13 mm^3
same,Tumor Volume,"[4]; Nepicastat 16 mg/kg, day 9",260 ± 25 mm^3
same,Tumor Volume,"[4]; Nepicastat 16 mg/kg, day 12",542 ± 75 mm^3
same,Tumor Volume,"[4]; Nepicastat 16 mg/kg, day 14",982 ± 111 mm^3
same,Tumor Volume,"[4]; Nepicastat 16 mg/kg, day 16","1,454 ± 173 mm^3"
same,T/C (%),"[4]; Nepicastat 16 mg/kg, day 19",84.1%
same,TGI (%) tumor growth inhibition,"[4]; Nepicastat 16 mg/kg, day 19",15.9%
same,Tumor Volume,"[4]; Nepicastat 16 mg/kg, day 19","2,546 ± 306 mm^3"
same,T-C (days) (Reach 1000 mm^3),[4]; Nepicastat 48 mg/kg,2 days
same,Tumor Volume,"[4]; Nepicastat 48 mg/kg, day 5",80 ± 6 mm^3
same,Tumor Volume,"[4]; Nepicastat 48 mg/kg, day 7",146 ± 12 mm^3
same,Tumor Volume,"[4]; Nepicastat 48 mg/kg, day 9",249 ± 26 mm^3
same,Tumor Volume,"[4]; Nepicastat 48 mg/kg, day 12",493 ± 74 mm^3
same,Tumor Volume,"[4]; Nepicastat 48 mg/kg, day 14",795 ± 129 mm^3
same,Tumor Volume,"[4]; Nepicastat 48 mg/kg, day 16","1,150 ± 188 mm^3"
same,T/C (%),"[4]; Nepicastat 48 mg/kg, day 19",65.8%
same,TGI (%) tumor growth inhibition,"[4]; Nepicastat 48 mg/kg, day 19",34.2%
same,Tumor Volume,"[4]; Nepicastat 48 mg/kg, day 19","1,992 ± 349 mm^3"
same,T/C (%),[4]; [7],66%
same,Tumor Volume,[4]; [7],1992 mm^3
same,Cell viability (%),"[5]; 0.1 μM, 72 h, H22 cells",103.2%
same,anti-proliferative effect on H22 cell line,"[5]; 1 μM and 0.1, in words",did not show any significant anti-proliferative effects
same,viability at 0.1 µM,"[5]; Mus musculus, H22, 72 h, 0.1 μM, 72 h, H22 cells, read-out: Cell viability (%)",102%
same,viability at 1 µM,"[5]; Mus musculus, H22, 72 h, 1 μM, 72 h, H22 cells, read-out: Cell viability (%)",94.4%
same,IC50,"[5]; Mus musculus, calculated from FIG. 1, read-out: IC50 in H22 murine hepatocarcinoma cells proliferation",52.6 µM
same,Cmax,[6],~200 nM
